How the values were obtained:
[1] = tested on: panel of 12 NSCLC cell lines; test: Concentration-response toxicity across panel of NSCLC cell lines; format: cell-based, human
[2] = tested on: H2122 cells; test: Compound stability in cell lines, H2122; format: in vitro ADME, human
[3] = tested on: SCD (p37 and p30)
[4] = tested on: H2122; test: Compound concentration response, viability; format: cell-based, human; settings: read-out: IC50 (concentration that resulted in 50% less viability); H2122 cells
[5] = Pharmacokinetic studies in CD-1 mice; format: in vivo, mouse; settings: 6 and 20 mg/kg
[6] = tested on: H2122 derived tumors; test: Xenograft experiment, H2122 derived tumors in Nod-Scid mice; format: in vivo, mouse; settings: 20 mg/kg once daily
[7] = tested on: sebocytes; test: In vivo toxicity study, sebocytes in skin of CD-1 mice; parameters: species or system mouse; settings: 20 mg/kg once a day for two weeks
[8] = Body weight loss in xenograft experiments; format: in vivo, mouse; settings: once daily dosing

With `COc1ccc(CCNC(=O)C(=O)Nc2ccc(Cl)cc2)cc1` [SW027951] the “toxicity in eight of the remaining ten cell lines” value ([1]; 6 μM) was “insensitive” and the “toxicity in HCC44 and HCC95” value ([1]; HCC44 and HCC95 cell lines) was “intermediate toxicity”.
With `CCCCc1ccc(N=CNO)c(C)c1` [HET0016] the “effect on SW208108 metabolism” value [2] was “inhibited both the loss of SW208108 and the generation of dMe-SW208108”, the “effect on binding of SW208108 to SCD” value ([3]; H2122, 0.1 µM SW208108) was “inhibited the binding of SW208108 to SCD in a dose dependent fashion” and the “effect on ability of dMe-SW208108 to bind SCD” value ([3]; H2122, 0.1 µM dMe-SW208108) was “no effect”.
For `O=C(NCCC1CC1)c1ccc(N2CCN(C(=O)c3cc(F)ccc3C(F)(F)F)CC2)nn1` [Xenon-45], the IC50 [4] was 95 nM, the pharmacokinetic properties [5] was “favorable pharmacokinetic properties” and the “growth of H2122 tumors” value [6] was “no efficacy”. For the same compound, the “sebocytes in hair follicles of skin” value [7] was “devoid of sebocytes” and the Weight loss [8] was “up to 7%”.
